The values below are quoted from earlier work in patent EP3173487A1 (priority 2015, dated 2017).

Each structure is given as a SMILES string.

The subject of the series is haloalkane dehalogenases. Particulars: pH 8.6.
For `ClCC(Cl)CCl` [1,2,3-trichloropropane], the “classification as substrate of the analyzed haloalkane dehalogenases” value was “poor”.

Regarding `BrCCBr` [1,2-dibromoethane], the “classification as substrate of the analyzed haloalkane dehalogenases” value was “universal”. `CC(Cl)CCl` (stereo not drawn) [1,2-dichloropropane]: the “classification as substrate of the analyzed haloalkane dehalogenases” value is “poor”. Regarding `CCCCBr` [1-bromobutane], the “classification as substrate of the analyzed haloalkane dehalogenases” value is given as “universal”. In the case of `CCCCI` [1-iodobutane], the “classification as substrate of the analyzed haloalkane dehalogenases” value is on record as “universal”.

On to `CCCI` [1-iodopropane], for which the “classification as substrate of the analyzed haloalkane dehalogenases” value is “universal”. In the case of `N#CCCCBr` [4-bromobutanenitrile], the “classification as substrate of the analyzed haloalkane dehalogenases” value is reported as “universal”. For `BrCC1CCCCC1` [(bromomethyl)cyclohexane], the “classification as substrate of the analyzed haloalkane dehalogenases” value is recorded as “poor”. As for `ClC1CCCCC1` [chlorocyclohexane], the “classification as substrate of the analyzed haloalkane dehalogenases” value is “poor”.
